Measurements published in patent US9186338B2, “Solubility enhancer and use thereof” (priority 2005, dated 2015).

Excerpt: In accordance with yet another aspect of the present invention, there is provided a method for determining the solubility of said drugs, wherein the method comprises incremental addition of said drugs taken from stock to said solubility enhancer, shaking the resultant in an ultrasonic bath to obtain clear solution and determining the solubility.
The solutions of Isotretinoin were made by incremental addition technique, i.e. by adding portions of the drug from pre-weighed stock (Isotretinoin) to known volume of the alkanamide solution and shaking in an ultrasonic bath till the solution was clear. Thereafter the second weight was recorded & solubility was determined.
(§1) Thereafter the second weight was recorded & solubility was determined.
as §1

amount of drug solubilized in 1 ml of Hexanamide: 206 mg | amount of drug solubilized in 1 ml of Octanamide: 139.2 mg | solubility in Hexanamide: 20.6 % w/v | solubility in Octanamide: 13.92 % w/v
Structure (SMILES): CC1=C(/C=C/C(C)=C/C=C/C(C)=C\C(=O)O)C(C)(C)CCC1 [Isotretinoin]
